In BindingDB's records for doi:10.1016/j.bmc.2023.117534 (Zunyi Medical University, 2023):
pIC50: −log10 of the molar value.

Tests used:
[1] = Inhibition of EGFR L858R/T790M/C797S triple mutant in human NCI-H1975 cells assessed as cell growth inhibition measured after 72 hrs by CellTiter-Glo assay
[2] = Inhibition of wild type EGFR in mouse BaF3 cells assessed as cell growth inhibition measured after 72 hrs by CellTiter-Glo assay

Row | Structure (SMILES) | pIC50 [1] | pIC50 [2]
1 | COc1cc2ncnc(NCc3ccc(NC(=O)C(c4ccccc4)N4Cc5ccccc5C4=O)cc3)c2cc1OCCCN1CCOCC1 (stereo not drawn) | 4.91 | 5.84
2 | O=C(Nc1nccs1)C(c1ccccc1)N1Cc2ccccc2C1=O (stereo not drawn) |  | < 5.00
